Where two headings read alike, the source gives them in different places.
Columns and labels:
HIV-1IIIB (wild type) = experiment: XTT assay in MT-4 cells infected with wild type HIV-1IIIB; format: cell-based
Experimental: Compounds of the invention are assayed for HIV activity, for example using multiple determinations with XTT in MT-4 cells (Weislow et al, J Nat Cancer Inst 1989, vol 81 no 8, 577 et seq), preferably including determinations in the presence of 40-50% human serum to indicate the contribution of protein binding. In short the XTT assay uses human T cell line MT4 cells grown in RPMI 1640 medium supplemented with 10% fetal calf serum (or 40-50% human serum as appropriate), penicillin and streptomycin seeded into 96 well microplates (2·10^4 cells/well) infected with 10-20 TCID50 per well of HIV-1IIIB (wild type) or mutant virus, such as those bearing RT lie 100, Cys 181 or Asn 103 mutations. Serially diluted test compounds are added to respective wells and the culture incubated at 37° C. in a CO2 enriched atmosphere and the viability of cells is determined at day five or six with XTT vital dye. Results are typically presented as ED50 μM.

[1] = biological target: T1, HIV-1 reverse transcriptase (Human immunodeficiency virus type 1 group M subtype B, UniProt P04585); experiment: activity of separated optical isomers (test not stated); details: second eluting peak on chiral AGP column
T1 construct: active against reverse transcriptase, especially that of HIV-1

[2] = Human immunodeficiency virus 1, MT4, read-out: ED50
[3] = XTT assay, MT-4 cells, wild type HIV-1IIIB, read-out: ED50 (the source's name)

Compound	EC50 (HIV-1IIIB (wild type); [2]) [nM]	EC50 (HIV-1IIIB (wild type); [3]) [nM]	activity of the more slowly eluting isomer, typically negative rotation [1]
N#Cc1ccc(NC(=O)N[C@@H]2[C@@H]3COc4c(Cl)ccc(Cl)c4[C@@H]32)nc1 [Example 33, +/−-cis-N-(5-cyano-2-pyridinyl)-N′-(4,7-dichloro-1,1a,2,7b-tetrahydrocyclopropa[c]chromen-1-yl)urea]	9	–	–
N#Cc1ccc(NC(=O)NC2C3COc4c(Cl)ccc(F)c4C32)nc1 (racemic) [Example 7, (±)-cis-1-(5-Cyano-pyridin-2-yl)-3-(7-fluoro-4-chloro-1,1a,2,7b-tetrahydro-cyclopropa[c]chromen-1-yl)-urea]	–	7	–
O=C(Nc1ccc(Oc2ccccc2)cn1)N[C@@H]1[C@@H]2COc3c(F)ccc(F)c3[C@@H]21 (relative stereo) [Example 20, +/−cis-1-(4,7-Difluoro-1,1a,2,7b-tetrahydro-cyclopropa[c]chromen-1-yl)-3-(5-phenoxy-pyridin-2-yl)-urea]	–	7	–
N#Cc1ccc(NC(=O)NC2C3Sc4ccccc4C23)nc1 (racemic) [Example 43, (+/−)cis N-[1a,6b-dihydro-1H-benzo[b]cyclopropa[d]thien-1-yl]-N′-(5-cyano-2-pyridinyl)-urea]	2	–	–
(+/−)-cis-1-(4,7-Difluoro-1,1a,2,7b-tetrahydro-cyclopropa[c]chromen-1-yl)-3-(5-ethynyl-pyridin-2-yl)-urea [Example 18]	–	6	–
(+/−)-cis-1-(5-Cyano-3-methyl-pyridin-2-yl)-3-(4,7-difluoro-1,1a,2,7b-tetrahydro-cyclopropa[c]chromen-1-yl)-urea [Example 16]	–	6	–
N#Cc1ccc(NC(=O)N[C@@H]2[C@@H]3COc4c(Br)ccc(F)c4[C@@H]32)nc1 [Example 24, cis-1-(4-Bromo-7-fluoro-1,1a,2,7b-tetrahydro-cyclopropa[c]chromen-1-yl)-3-(5-cyano-pyridin-2-yl)-urea]	20	–	–
(+/−)-cis-1-(5-Bromo-pyridin-2-yl)-3-(4,7-difluoro-1,1a,2,7b-tetrahydro-cyclopropa[c]chromen-1-yl)-urea [Example 19]	–	10	–
O=C(Nc1ccc(Cl)cn1)N[C@H]1C2c3c(F)ccc(F)c3OC[C@H]21 (single isomer, unassigned; (-)) [Example 31, (−) cis-1-(5-Chloro-pyridin-2-yl)-3-(4,7-difluoro-1,1a,2,7b-tetrahydro-cyclopropa[c]chromen-1-yl)-urea]	2.5	–	particularly active
N#Cc1ccc(NC(=O)N[C@@H]2[C@@H]3COc4c(F)ccc(F)c4[C@@H]32)nc1 [Example 30, (−)-cis-1-(5-Cyano-pyridin-2-yl)-3-(4,7-difluoro-1,1a,2,7b-tetrahydro-cyclopropa[c]chromen-1-yl)-urea]	3	–	particularly active
N#Cc1ccc(NC(=O)N[C@@H]2[C@@H]3COc4cc(F)cc(F)c4[C@@H]32)nc1 (relative stereo) [Example 23, 1-(5-Cyano-pyridin-2-yl)-3-(5,7-difluoro-1,1a,2,7b-tetrahydro-cyclopropa[c]chromen-1-yl)urea]	7	–	–

Source: patent publication US6716850B2, “Non-nucleoside reverse transcriptase inhibitors” (Medivir AB, priority 2001, dated 2004)
